Data: the NIST ThermoML archive (doi:10.1016/j.jct.2008.12.010)
± gives the expanded uncertainty stated by the source.

How the values were obtained:
[1] = for speed of sound / mass density: 101.33 kPa, Liquid; for speed of sound: Linear variable-path acoustic interferometer; for mass density: Vibrating tube method; for surface tension liquid-gas: Drop volume
[2] = xn = mol fraction of the nth substance listed; conditions: for surface tension liquid-gas: 298.15 K, Drop volume; for speed of sound / mass density: 303.15 K, Liquid; for speed of sound: Linear variable-path acoustic interferometer; for mass density: Vibrating tube method

Cc1ccc(C)cc1 [1,4-dimethylbenzene]
[1]
Conditions	mass density [kg/m3]	speed of sound [m/s]	surface tension liquid-gas [mN/m]
288.15 K	865.2 ± 0.23	1350.7 ± 2	–
293.15 K	860.9 ± 0.24	1329.6 ± 2	–
298.15 K	856.58 ± 0.24	1308.4 ± 2	27.43 ± 0.2
303.15 K	852.21 ± 0.24	1287.4 ± 1.9	–
308.15 K	847.83 ± 0.24	1266.4 ± 1.9	–

CCCCCCCCCC [decane]
[1]
Conditions	mass density [kg/m3]	speed of sound [m/s]	surface tension liquid-gas [mN/m]
288.15 K	733.62 ± 0.24	1274.4 ± 1.9	–
293.15 K	729.86 ± 0.24	1254.8 ± 1.9	–
298.15 K	726.09 ± 0.24	1234.7 ± 1.9	23.1 ± 0.18
303.15 K	722.3 ± 0.25	1214.7 ± 1.9	–
308.15 K	718.51 ± 0.25	1194.9 ± 1.9	–

CCOC(=O)OCC [diethyl carbonate]
[1]
Conditions	mass density [kg/m3]	speed of sound [m/s]	surface tension liquid-gas [mN/m]
288.15 K	980.4 ± 0.13	1218 ± 1.7	–
293.15 K	974.81 ± 0.13	1197.7 ± 1.7	–
298.15 K	969.19 ± 0.13	1176.9 ± 1.7	25.43 ± 0.25
303.15 K	963.6 ± 0.13	1156.3 ± 1.7	–
308.15 K	957.92 ± 0.13	1135.8 ± 1.7	–

CCOC(=O)OCC [diethyl carbonate] + CCCCCCCCCC
[2]
Conditions	mass density [kg/m3]	speed of sound [m/s]	surface tension liquid-gas [mN/m]
x1 = 0.0495	729.09 ± 0.24	1207.8 ± 1.9	–
x1 = 0.04972	–	–	22.98 ± 0.26
x1 = 0.09861	736.12 ± 0.24	1201.1 ± 1.9	–
x1 = 0.09958	–	–	22.89 ± 0.26
x1 = 0.1979	751.5 ± 0.23	1188.8 ± 1.9	–
x1 = 0.1989	–	–	22.86 ± 0.26
x1 = 0.2966	–	–	22.84 ± 0.26
x1 = 0.3012	769.28 ± 0.22	1177.8 ± 1.8	–
x1 = 0.3959	–	–	22.89 ± 0.25
x1 = 0.3995	788 ± 0.21	1168.5 ± 1.8	–
x1 = 0.504	810.31 ± 0.2	1160.2 ± 1.8	–
x1 = 0.5144	–	–	22.97 ± 0.25
x1 = 0.5477	820.39 ± 0.2	1157.2 ± 1.8	–
x1 = 0.5568	–	–	22.98 ± 0.25
x1 = 0.5996	–	–	23.04 ± 0.25
x1 = 0.6015	833.53 ± 0.19	1153.9 ± 1.8	–
x1 = 0.699	859.54 ± 0.18	1149.6 ± 1.7	–
x1 = 0.7	–	–	23.24 ± 0.25
x1 = 0.7887	–	–	23.58 ± 0.25
x1 = 0.799	889.41 ± 0.17	1147.7 ± 1.7	–
x1 = 0.8986	–	–	24.27 ± 0.25
x1 = 0.9002	924.32 ± 0.17	1149.1 ± 1.7	–
x1 = 0.95	943.19 ± 0.16	1151.4 ± 1.7	–
x1 = 0.9516	–	–	24.76 ± 0.25
